target: Nav 1.7 (human SCN9A) (Homo sapiens, UniProt Q15858); test: Measurement of Na ion current by automated patch clamp assay in cells stably-expressing human SCN9A; format: cell-based; conditions: compound concentration 10 μmol/L; peak current at 30th depolarizing pulse (10 Hz); holding potential inactivating 50% Nav 1.7 channel (around −60 mV); room temperature; read-out: Inhibitory rate (%) of Na ion current
Method: Measurement of Na Ion Current in Voltage-Dependent Na Channel Gene Expressed Cell
Nav 1.7 current was measured by automated patch clamp assay using cells stably-expressing human SCN9A.
Cells Stably-Expressing Human SCN9A
Tetracycline-induced cells stably-expressing SCN9A were obtained from ChanTest Corporation. The cells were passaged in Ham's F-12 medium containing […], 100 units/mL Penicillin-Streptomycin, 0.01 mg/mL Blasticidin, and 400 μg/mL Zeocin. The cell seeded on a glass slide was cultured in Ham's F-12 medium containing 1 μg/mL tetracycline, 1 μg/mL sodium butyrate, 10% fetal bovine serum, and 100 units/mL Penicillin-Streptomycin. Next day, the Na ion current was measured by automated patch clamp assay.
Electrophysiologic Measurement of Na Ion Current
The Na ion current was measured by automated patch clamp assay using the following extracellular solution and intracellular solution.
Extracellular solution (mmol/L): NaCl 130, MgCl2 2, CaCl2) 2, CdCl2 0.1, NiCl2 0.1, Tetraethylammonium-Cl 18, 4-aminopyridine 1, HEPES (4-(2-hydroxyethyl)-1-piperazineethanesulfonic acid) 10, (adjusting pH 7.4 with NaOH)
Intracellular solution (mmol/L): CsF 120, EGTA (ethylene glycol tetraacetic acid) 10, NaCl 15, HEPES 10, (adjusting pH 7.2 with CsOH)
The control of the stimulating pulse and the data acquisition were carried out using EPC10 amplifier and Patch Master Software (HEKA). Data were sampled at 20 kHz, and low-pass filtered at 2.9 kHz. All the measurements were carried out at room temperature. The holding potential was set at a potential inactivating 50% Nav 1.7 channel (around −60 mV), and depolarizing pulse of 20 milliseconds (around 0 mV) was given at a frequency of 10 Hz 30 times. […] The inhibitory rate of the Na ion current by the test compounds was calculated according to the following calculating formula with the peak current value generated by the 30th depolarizing pulse.
Inhibitory rate of Na ion current (%)=100×[(Peak current value in the absence of Test Compound)−(Peak current value in the presence of Test Compound)]/(Peak current value in the absence of Test Compound)

Chain of Nav 1.7 (human SCN9A) (Q15858 whole entry): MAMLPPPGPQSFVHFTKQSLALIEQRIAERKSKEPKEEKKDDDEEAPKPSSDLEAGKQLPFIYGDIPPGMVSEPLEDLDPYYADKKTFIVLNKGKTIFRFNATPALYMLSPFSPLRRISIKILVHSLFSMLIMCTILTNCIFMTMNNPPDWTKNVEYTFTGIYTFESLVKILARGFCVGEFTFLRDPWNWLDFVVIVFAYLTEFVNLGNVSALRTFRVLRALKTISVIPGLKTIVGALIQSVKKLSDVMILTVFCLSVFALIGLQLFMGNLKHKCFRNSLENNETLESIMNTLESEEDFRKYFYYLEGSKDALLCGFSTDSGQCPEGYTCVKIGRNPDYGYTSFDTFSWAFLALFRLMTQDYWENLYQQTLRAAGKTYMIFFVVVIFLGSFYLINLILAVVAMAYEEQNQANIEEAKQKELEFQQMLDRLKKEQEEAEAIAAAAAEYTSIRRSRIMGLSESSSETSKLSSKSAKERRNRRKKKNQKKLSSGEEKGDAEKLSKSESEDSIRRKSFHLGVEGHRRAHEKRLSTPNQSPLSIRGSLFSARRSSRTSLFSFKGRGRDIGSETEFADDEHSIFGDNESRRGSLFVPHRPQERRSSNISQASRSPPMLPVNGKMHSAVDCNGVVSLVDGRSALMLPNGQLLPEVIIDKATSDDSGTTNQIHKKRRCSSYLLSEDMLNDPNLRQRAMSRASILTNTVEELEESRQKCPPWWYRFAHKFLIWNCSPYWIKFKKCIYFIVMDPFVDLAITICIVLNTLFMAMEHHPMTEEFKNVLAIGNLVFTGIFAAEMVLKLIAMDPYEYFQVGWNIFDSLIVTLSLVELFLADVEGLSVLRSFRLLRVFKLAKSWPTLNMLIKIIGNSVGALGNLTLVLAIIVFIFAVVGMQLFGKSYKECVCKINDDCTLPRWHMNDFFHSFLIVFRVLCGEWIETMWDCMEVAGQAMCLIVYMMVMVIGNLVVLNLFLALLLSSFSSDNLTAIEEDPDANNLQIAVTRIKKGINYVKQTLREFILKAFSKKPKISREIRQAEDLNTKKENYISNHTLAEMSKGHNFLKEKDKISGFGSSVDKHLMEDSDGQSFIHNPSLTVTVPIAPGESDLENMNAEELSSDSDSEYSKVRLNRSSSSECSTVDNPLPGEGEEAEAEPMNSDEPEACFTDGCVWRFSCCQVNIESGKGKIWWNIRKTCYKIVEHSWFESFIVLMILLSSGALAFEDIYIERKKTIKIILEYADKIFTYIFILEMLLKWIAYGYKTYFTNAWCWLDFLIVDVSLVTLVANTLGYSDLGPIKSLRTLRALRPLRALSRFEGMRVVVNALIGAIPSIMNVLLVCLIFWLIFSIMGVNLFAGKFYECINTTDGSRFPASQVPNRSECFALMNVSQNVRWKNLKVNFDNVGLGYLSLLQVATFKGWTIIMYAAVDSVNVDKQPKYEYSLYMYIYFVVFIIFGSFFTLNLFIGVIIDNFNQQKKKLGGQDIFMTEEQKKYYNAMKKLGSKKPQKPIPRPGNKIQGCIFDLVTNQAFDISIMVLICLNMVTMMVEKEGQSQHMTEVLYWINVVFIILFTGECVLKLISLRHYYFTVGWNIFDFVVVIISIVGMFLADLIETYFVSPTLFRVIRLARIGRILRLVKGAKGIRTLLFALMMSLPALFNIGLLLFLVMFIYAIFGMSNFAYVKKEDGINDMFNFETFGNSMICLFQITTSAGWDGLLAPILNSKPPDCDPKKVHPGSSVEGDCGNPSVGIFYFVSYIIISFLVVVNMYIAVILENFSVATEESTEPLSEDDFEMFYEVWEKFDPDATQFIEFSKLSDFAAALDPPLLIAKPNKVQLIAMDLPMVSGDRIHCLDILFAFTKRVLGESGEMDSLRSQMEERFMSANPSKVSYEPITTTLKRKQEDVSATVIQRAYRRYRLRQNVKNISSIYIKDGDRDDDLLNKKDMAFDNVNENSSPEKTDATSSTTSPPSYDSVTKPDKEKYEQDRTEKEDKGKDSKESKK

inhibition at 10 µM [%]	Structure (SMILES)
26	O=c1[nH]c2ccc(Oc3ccc(C(F)(F)F)cn3)cc2n1CC1(O)COC1 [Example 2, 1-[(3-hydroxyoxetan-3-yl)methyl]-6-{[5-(trifluoromethyl)pyridin-2-yl]oxy}-1,3-dihydro-2H-benzimidazol-2-one]
42	CC(C)(O)Cn1c(=O)[nH]c2cc(Oc3ccc(OC(F)(F)F)cc3)ccc21 [Example 25, 1-(2-hydroxy-2-methylpropyl)-5-[4-(trifluoromethoxy)phenoxy]-1,3-dihydro-2H-benzimidazol-2-one]
86	O=c1[nH]c2ccc(Oc3ccc(OC(F)(F)F)cc3)cc2n1CC1(O)COC1 [Example 5, 1-[(3-hydroxyoxetan-3-yl)methyl]-6-[4-(trifluoromethoxy)phenoxy]-1,3-dihydro-2H-benzimidazol-2-one]
87	Cn1c(=O)n(CC2(O)COC2)c2cc(Oc3ccc(OC(F)(F)F)cc3)ccc21 [Example 17, 3-[(3-hydroxyoxetan-3-yl)methyl]-1-methyl-5-[4-(trifluoromethoxy)phenoxy]-1,3-dihydro-2H-benzimidazol-2-one]
22	O=c1[nH]c2ccc(Oc3ccc(C(F)(F)F)nc3)cc2n1CC1(O)COC1 [Example 3, 1-[(3-hydroxyoxetan-3-yl)methyl]-6-{[6-(trifluoromethyl)pyridin-3-yl]oxy}-1,3-dihydro-2H-benzimidazol-2-one]
39	Cn1c(=O)n(CC2(O)COC2)c2ccc(Oc3ccc(OC(F)(F)F)cc3)cc21 [Example 28, 1-[(3-hydroxyoxetan-3-yl)methyl]-3-methyl-5-[4-(trifluoromethoxy)phenoxy]-1,3-dihydro-2H-benzimidazol-2-one]
32	CC(C)(O)Cn1c(=O)[nH]c2cc(Oc3ccc(C(F)(F)F)cn3)ccc21 [Example 26, 1-(2-hydroxy-2-methylpropyl)-5-{[5-(trifluoromethyl)pyridin-2-yl]oxy}-1,3-dihydro-2H-benzimidazol-2-one]
39	Cn1c(=O)n(CC2(O)COC2)c2cc(Oc3ccc(C(F)(F)F)cn3)ccc21 [Example 14, 3-[(3-hydroxyoxetan-3-yl)methyl]-1-methyl-5-{[5-(trifluoromethyl)pyridin-2-yl]oxy}-1,3-dihydro-2H-benzimidazol-2-one]
46	Cn1c(=O)n(CC2(O)COC2)c2cc(Oc3ccc(C(F)(F)F)nc3)ccc21 [Example 15, 3-[(3-hydroxyoxetan-3-yl)methyl]-1-methyl-5-{[6-(trifluoromethyl)pyridin-3-yl]oxy}-1,3-dihydro-2H-benzimidazol-2-one]
61	Cn1c(=O)n(CC2(O)COC2)c2cc(Oc3ccc(F)cc3)ccc21 [Example 16, 5-(4-fluorophenoxy)-3-[(3-hydroxyoxetan-3-yl)methyl]-1-methyl-1,3-dihydro-2H-benzimidazol-2-one]
40	O=c1[nH]c2ccc(Oc3ccc(F)cc3)cc2n1CC1(O)COC1 [Example 7, 6-(4-fluorophenoxy)-1-[(3-hydroxyoxetan-3-yl)methyl]-1,3-dihydro-2H-benzimidazol-2-one]
38	O=c1[nH]c2cc(Oc3ccc(OC(F)(F)F)cc3)ccc2n1CC1(O)COC1 [Example 27, 1-[(3-hydroxyoxetan-3-yl)methyl]-5-[4-(trifluoromethoxy)phenoxy]-1,3-dihydro-2H-benzimidazol-2-one]

More lines, now with the values behind:

Structure (SMILES)	inhibition at 10 µM [%]
Cn1c(=O)n(CC(C)(C)O)c2cc(Oc3ccc(C(F)(F)F)cn3)ccc21 [Example 13, 3-(2-hydroxy-2-methylpropyl)-1-methyl-5-{[5-(trifluoromethyl)pyridin-2-yl]oxy}-1,3-dihydro-2H-benzimidazol-2-one]	38
CC(C)(O)Cn1c(=O)[nH]c2cc(-c3ccc(C(F)(F)F)nc3)ccc21 [Example 23, 1-(2-hydroxy-2-methylpropyl)-5-[6-(trifluoromethyl)pyridin-3-yl]-1,3-dihydro-2H-benzimidazol-2-one]	36
CC(C)(O)Cn1c(=O)[nH]c2ccc(Oc3ccc(C(F)(F)F)cn3)cc21 [Example 1, 1-(2-hydroxy-2-methylpropyl)-6-{[5-(trifluoromethyl)pyridin-2-yl]oxy}-1,3-dihydro-2H-benzimidazol-2-one]	33
CC(C)(O)Cn1c(=O)[nH]c2ccc(-c3ccc(C(F)(F)F)cc3)cc21 [Example 21, 1-(2-hydroxy-2-methylpropyl)-6-[4-(trifluoromethyl)phenyl]-1,3-dihydro-2H-benzimidazol-2-one]	96
CC(C)(O)Cn1c(=O)[nH]c2ccc(-c3ccc(F)cc3)cc21 [Example 22, 6-(4-fluorophenyl)-1-(2-hydroxy-2-methylpropyl)-1,3-dihydro-2H-benzimidazol-2-one]	43
O=c1[nH]c2ccc(Oc3ccc(Cl)cc3)cc2n1CC1(O)COC1 [Example 8, 6-(4-chlorophenoxy)-1-[(3-hydroxyoxetan-3-yl)methyl]-1,3-dihydro-2H-benzimidazol-2-one]	80
CC(C)(O)Cn1c(=O)[nH]c2ccc(-c3ccc(C(F)(F)F)nc3)cc21 [Example 19, 1-(2-hydroxy-2-methylpropyl)-6-[6-(trifluoromethyl)pyridin-3-yl]-1,3-dihydro-2H-benzimidazol-2-one]	8
CC(C)(O)Cn1c(=O)[nH]c2cc(-c3ccc(F)cc3)ccc21 [Example 24, 5-(4-fluorophenyl)-1-(2-hydroxy-2-methylpropyl)-1,3-dihydro-2H-benzimidazol-2-one]	45
CCn1c(=O)n(CC(C)(C)O)c2cc(Oc3ccc(C(F)(F)F)cn3)ccc21 [Example 12, 1-ethyl-3-(2-hydroxy-2-methylpropyl)-5-{[5-(trifluoromethyl)pyridin-2-yl]oxy}-1,3-dihydro-2H-benzimidazol-2-one]	14
C[C@H](n1c(=O)[nH]c2ccc(Oc3ccc(C(F)(F)F)cn3)cc21)C(C)(C)O [Example 9, 1-[(2S)-3-hydroxy-3-methylbutan-2-yl]-6-{[5-(trifluoromethyl)pyridin-2-yl]oxy}-1,3-dihydro-2H-benzimidazol-2-one]	27
CC(C)(O)Cn1c(=O)[nH]c2ccc(Oc3ccc(F)cc3)cc21 [Example 6, 6-(4-fluorophenoxy)-1-(2-hydroxy-2-methylpropyl)-1,3-dihydro-2H-benzimidazol-2-one]	40
O=c1[nH]c2ccc(Oc3ccc(F)cc3)cc2n1[C@H]1CC[C@@H](O)CC1 [Example 11, 6-(4-fluorophenoxy)-1-(cis-4-hydroxycyclohexyl)-1,3-dihydro-2H-benzimidazol-2-one]	65
C[C@H](n1c(=O)[nH]c2ccc(Oc3ccc(F)cc3)cc21)C(C)(C)O [Example 10, 6-(4-fluorophenoxy)-1-[(2S)-3-hydroxy-3-methylbutan-2-yl]-1,3-dihydro-2H-benzimidazol-2-one]	50
Cn1c(=O)n(CC2(O)COC2)c2cc(Oc3ccc(Cl)cc3)ccc21 [Example 18, 5-(4-chlorophenoxy)-3-[(3-hydroxyoxetan-3-yl)methyl]-1-methyl-1,3-dihydro-2H-benzimidazol-2-one]	86
CC(C)(O)Cn1c(=O)[nH]c2ccc(-c3ccc(C(F)(F)F)cn3)cc21 [Example 20, 1-(2-hydroxy-2-methylpropyl)-6-[5-(trifluoromethyl)pyridin-2-yl]-1,3-dihydro-2H-benzimidazol-2-one]	29
O=c1[nH]c2ccc(Oc3ccc(C(F)(F)F)cn3)cc2n1[C@H]1CC[C@@H](O)CC1 [Example 4, 1-(cis-4-hydroxycyclohexyl)-6-{[5-(trifluoromethyl)pyridin-2-yl]oxy}-1,3-dihydro-2H-benzimidazol-2-one]	39

Source: patent US20210393604A1, “NOVEL BENZIMIDAZOLONE COMPOUND AND PHARMACEUTICAL USE THEREOF” (Sumitomo Dainippon Pharma Co., Ltd., priority 2017, published 2021)
